Measured values published in patent publication US20160223562A1, “Method for Determining the Concentration of a Peptide” (JPT Peptide Technologies GmbH, priority 2010, published 2016).
Square brackets hold non-standard residues; d marks the D form. Peptide text beside a SMILES is read from it. Tyr(3-NO2) = N[C@@H](Cc1ccc(O)c([N+](=O)[O-])c1)C(=O)O

Molecular target: T1, Trypsin (Sus scrofa, UniProt P00761)
T1 construct: purchased Promega Corporation V511
Assay: Trypsin cleavage of N-terminal quantification tag Ac-nitroTyr-SGK- from peptides, LC-MS with UV detection at 350 nm
Assay type: biochemical
Conditions: trypsin protocol of example 9, 24 h, RT
Method: Trypsin Activation: Trypsin (20 μg, sequencing grade modified trypsin, Promega Corporation, Madison, Wis., USA, catalogue no. V511, specific activity 16.965 u/mg) was dissolved in Trypsin resuspension buffer (200 μL, Promega, catalogue no. V542A, ingredient 50 mM acetic acid) and incubated for 15 min at 37° C.
Reduction and alkylation: The peptide (approx. 0.05 mg) was dissolved in 1 M urea and 100 mM fresh ammonium hydrogen carbonate (300 μL). TCEP (Tris(2-carboxyethyl) phosphine hydrochloride, 0.2 M, 7.5 μL, final concentration 5 mM) was added and the solution incubated at 37° C. for 1 h. After addition of iodoacetamide (0.5 M, 6.0 μL, final concentration 10 mM) the solution was incubated at RT in the dark for another 30 min. Digestion: The sample was digested with activated Trypsin solution (10 μL per well, 1.0 μg, resulting enzyme/substrate ratio 1:50) over night at RT. To stop the digestion, HCl (2 M, 8 μL final concentration 50 mM) and TFA (3.2 μL, final concentration 1%, pH<2) were added. Finally, the sample was analyzed by LC-MS at 350 nm.
38 peptides carrying the N-terminal quantification-tag Ac-nitroTyr-SGK-(SEQ ID NO:32) were synthesized by SPOT synthesis (Table 3). The peptide sequences are based on two different amino acid sequences, which in each case contain 19 different amino acids N-terminally attached to lysine (the 20 naturally occurring amino acids except cysteine).
All peptides were subjected to the same trypsin cleavage protocol as described in example 9. It is apparent that the quantification tag is efficiently cleaved (>99%) in nearly all cases.

T1 sequence (P00761 9-231): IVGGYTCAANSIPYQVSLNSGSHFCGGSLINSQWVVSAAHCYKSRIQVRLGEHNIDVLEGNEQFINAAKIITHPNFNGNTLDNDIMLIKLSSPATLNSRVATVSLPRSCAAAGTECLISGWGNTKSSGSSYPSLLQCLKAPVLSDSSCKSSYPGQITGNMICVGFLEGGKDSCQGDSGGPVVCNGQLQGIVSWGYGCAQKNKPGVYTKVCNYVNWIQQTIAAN

Structure (SMILES) | Kusebauch 24 h, RT: Percent Cleavage of Tag [by UV350 - Peptide-Tag vs. Tag]
CC(=O)N[C@@H](Cc1ccc(O)c([N+](=O)[O-])c1)C(=O)N[C@@H](CO)C(=O)NCC(=O)N[C@@H](CCCCN)C(=O)N[C@@H](CCC(=O)O)C(=O)N[C@H](C(=O)N[C@@H](C)C(=O)N[C@@H](CC(C)C)C(=O)N[C@@H](CO)C(=O)N[C@@H](CC(C)C)C(=O)N[C@@H](CC(=O)O)C(=O)N[C@@H](CC(=O)O)C(=O)N[C@H](C(=O)N[C@@H](CCCCN)C(=O)O)C(C)C)C(C)C [Peptide 24, Ac-nitroTyr-SGKEVALSLDDV-K-OH] (Ac-[Tyr(3-NO2)]SGKEVALSLDDVK-OH) | 100.0%
CC(=O)N[C@@H](Cc1ccc(O)c([N+](=O)[O-])c1)C(=O)N[C@@H](CO)C(=O)NCC(=O)N[C@@H](CCCCN)C(=O)N[C@@H](Cc1ccccc1)C(=O)N[C@H](C(=O)N[C@@H](C)C(=O)N[C@@H](CC(C)C)C(=O)N[C@@H](CO)C(=O)N[C@@H](CC(C)C)C(=O)N[C@@H](CC(=O)O)C(=O)N[C@@H](CC(=O)O)C(=O)N[C@H](C(=O)N[C@@H](CCCCN)C(=O)O)C(C)C)C(C)C [Peptide 25, Ac-nitroTyr-SGKFVALSLDDV-K-OH] (Ac-[Tyr(3-NO2)]SGKFVALSLDDVK-OH) | 100.0%
CC(=O)N[C@@H](Cc1ccc(O)c([N+](=O)[O-])c1)C(=O)N[C@@H](CO)C(=O)NCC(=O)N[C@@H](CCCCN)C(=O)NCC(=O)N[C@H](C(=O)N[C@@H](C)C(=O)N[C@@H](CC(C)C)C(=O)N[C@@H](CO)C(=O)N[C@@H](CC(C)C)C(=O)N[C@@H](CC(=O)O)C(=O)N[C@@H](CC(=O)O)C(=O)N[C@H](C(=O)N[C@@H](CCCCN)C(=O)O)C(C)C)C(C)C [Peptide 26, Ac-nitroTyr-SGKGVALSLDDV-K-OH] (Ac-[Tyr(3-NO2)]SGKGVALSLDDVK-OH) | 99.3%
CC(=O)N[C@@H](Cc1ccc(O)c([N+](=O)[O-])c1)C(=O)N[C@@H](CO)C(=O)NCC(=O)N[C@@H](CCCCN)C(=O)N[C@@H](Cc1c[nH]cn1)C(=O)N[C@H](C(=O)N[C@@H](C)C(=O)N[C@@H](CC(C)C)C(=O)N[C@@H](CO)C(=O)N[C@@H](CC(C)C)C(=O)N[C@@H](CC(=O)O)C(=O)N[C@@H](CC(=O)O)C(=O)N[C@H](C(=O)N[C@@H](CCCCN)C(=O)O)C(C)C)C(C)C [Peptide 27, Ac-nitroTyr-SGKHVALSLDDV-K-OH] (Ac-[Tyr(3-NO2)]SGKHVALSLDDVK-OH) | 100.0%
CC[C@H](C)[C@H](NC(=O)[C@H](CCCCN)NC(=O)CNC(=O)[C@H](CO)NC(=O)[C@H](Cc1ccc(O)c([N+](=O)[O-])c1)NC(C)=O)C(=O)N[C@H](C(=O)N[C@@H](C)C(=O)N[C@@H](CC(C)C)C(=O)N[C@@H](CO)C(=O)N[C@@H](CC(C)C)C(=O)N[C@@H](CC(=O)O)C(=O)N[C@@H](CC(=O)O)C(=O)N[C@H](C(=O)N[C@@H](CCCCN)C(=O)O)C(C)C)C(C)C [Peptide 28, Ac-nitroTyr-SGKIVALSLDDV-K-OH] (Ac-[Tyr(3-NO2)]SGKIVALSLDDVK-OH) | 100.0%
CC(=O)N[C@@H](Cc1ccc(O)c([N+](=O)[O-])c1)C(=O)N[C@@H](CO)C(=O)NCC(=O)N[C@@H](CCCCN)C(=O)N[C@@H](CCCCN)C(=O)N[C@H](C(=O)N[C@@H](C)C(=O)N[C@@H](CC(C)C)C(=O)N[C@@H](CO)C(=O)N[C@@H](CC(C)C)C(=O)N[C@@H](CC(=O)O)C(=O)N[C@@H](CC(=O)O)C(=O)N[C@H](C(=O)N[C@@H](CCCCN)C(=O)O)C(C)C)C(C)C [Peptide 29, Ac-nitroTyr-SGKKVALSLDDV-K-OH] (Ac-[Tyr(3-NO2)]SGKKVALSLDDVK-OH) | 100.0%
CC(=O)N[C@@H](Cc1ccc(O)c([N+](=O)[O-])c1)C(=O)N[C@@H](CO)C(=O)NCC(=O)N[C@@H](CCCCN)C(=O)N[C@@H](CC(C)C)C(=O)N[C@H](C(=O)N[C@@H](C)C(=O)N[C@@H](CC(C)C)C(=O)N[C@@H](CO)C(=O)N[C@@H](CC(C)C)C(=O)N[C@@H](CC(=O)O)C(=O)N[C@@H](CC(=O)O)C(=O)N[C@H](C(=O)N[C@@H](CCCCN)C(=O)O)C(C)C)C(C)C [Peptide 30, Ac-nitroTyr-SGKLVALSLDDV-K-OH] (Ac-[Tyr(3-NO2)]SGKLVALSLDDVK-OH) | 100.0%
CSCC[C@H](NC(=O)[C@H](CCCCN)NC(=O)CNC(=O)[C@H](CO)NC(=O)[C@H](Cc1ccc(O)c([N+](=O)[O-])c1)NC(C)=O)C(=O)N[C@H](C(=O)N[C@@H](C)C(=O)N[C@@H](CC(C)C)C(=O)N[C@@H](CO)C(=O)N[C@@H](CC(C)C)C(=O)N[C@@H](CC(=O)O)C(=O)N[C@@H](CC(=O)O)C(=O)N[C@H](C(=O)N[C@@H](CCCCN)C(=O)O)C(C)C)C(C)C [Peptide 31, Ac-nitroTyr-SGKMVALSLDDV-K-OH] (Ac-[Tyr(3-NO2)]SGKMVALSLDDVK-OH) | 100.0%
CC(=O)N[C@@H](Cc1ccc(O)c([N+](=O)[O-])c1)C(=O)N[C@@H](CO)C(=O)NCC(=O)N[C@@H](CCCCN)C(=O)N[C@@H](CC(N)=O)C(=O)N[C@H](C(=O)N[C@@H](C)C(=O)N[C@@H](CC(C)C)C(=O)N[C@@H](CO)C(=O)N[C@@H](CC(C)C)C(=O)N[C@@H](CC(=O)O)C(=O)N[C@@H](CC(=O)O)C(=O)N[C@H](C(=O)N[C@@H](CCCCN)C(=O)O)C(C)C)C(C)C [Peptide 32, Ac-nitroTyr-SGKNVALSLDDV-K-OH] (Ac-[Tyr(3-NO2)]SGKNVALSLDDVK-OH) | 100.0%
CC(=O)N[C@@H](Cc1ccc(O)c([N+](=O)[O-])c1)C(=O)N[C@@H](CO)C(=O)NCC(=O)N[C@@H](CCCCN)C(=O)N1CCC[C@H]1C(=O)N[C@H](C(=O)N[C@@H](C)C(=O)N[C@@H](CC(C)C)C(=O)N[C@@H](CO)C(=O)N[C@@H](CC(C)C)C(=O)N[C@@H](CC(=O)O)C(=O)N[C@@H](CC(=O)O)C(=O)N[C@H](C(=O)N[C@@H](CCCCN)C(=O)O)C(C)C)C(C)C [Peptide 33, Ac-nitroTyr-SGKPVALSLDDV-K-OH] (Ac-[Tyr(3-NO2)]SGKPVALSLDDVK-OH) | 5.4%
CC(=O)N[C@@H](Cc1ccc(O)c([N+](=O)[O-])c1)C(=O)N[C@@H](CO)C(=O)NCC(=O)N[C@@H](CCCCN)C(=O)N[C@@H](CCC(N)=O)C(=O)N[C@H](C(=O)N[C@@H](C)C(=O)N[C@@H](CC(C)C)C(=O)N[C@@H](CO)C(=O)N[C@@H](CC(C)C)C(=O)N[C@@H](CC(=O)O)C(=O)N[C@@H](CC(=O)O)C(=O)N[C@H](C(=O)N[C@@H](CCCCN)C(=O)O)C(C)C)C(C)C [Peptide 34, Ac-nitroTyr-SGKQVALSLDDV-K-OH] (Ac-[Tyr(3-NO2)]SGKQVALSLDDVK-OH) | 100.0%
CC(=O)N[C@@H](Cc1ccc(O)c([N+](=O)[O-])c1)C(=O)N[C@@H](CO)C(=O)NCC(=O)N[C@@H](CCCCN)C(=O)N[C@@H](CCCNC(=N)N)C(=O)N[C@H](C(=O)N[C@@H](C)C(=O)N[C@@H](CC(C)C)C(=O)N[C@@H](CO)C(=O)N[C@@H](CC(C)C)C(=O)N[C@@H](CC(=O)O)C(=O)N[C@@H](CC(=O)O)C(=O)N[C@H](C(=O)N[C@@H](CCCCN)C(=O)O)C(C)C)C(C)C [Peptide 35, Ac-nitroTyr-SGKRVALSLDDV-K-OH] (Ac-[Tyr(3-NO2)]SGKRVALSLDDVK-OH) | 100.0%
CC(=O)N[C@@H](Cc1ccc(O)c([N+](=O)[O-])c1)C(=O)N[C@@H](CO)C(=O)NCC(=O)N[C@@H](CCCCN)C(=O)N[C@@H](CO)C(=O)N[C@H](C(=O)N[C@@H](C)C(=O)N[C@@H](CC(C)C)C(=O)N[C@@H](CO)C(=O)N[C@@H](CC(C)C)C(=O)N[C@@H](CC(=O)O)C(=O)N[C@@H](CC(=O)O)C(=O)N[C@H](C(=O)N[C@@H](CCCCN)C(=O)O)C(C)C)C(C)C [Peptide 36, Ac-nitroTyr-SGKSVALSLDDV-K-OH] (Ac-[Tyr(3-NO2)]SGKSVALSLDDVK-OH) | 100.0%
CC(=O)N[C@@H](Cc1ccc(O)c([N+](=O)[O-])c1)C(=O)N[C@@H](CO)C(=O)NCC(=O)N[C@@H](CCCCN)C(=O)N[C@H](C(=O)N[C@H](C(=O)N[C@@H](C)C(=O)N[C@@H](CC(C)C)C(=O)N[C@@H](CO)C(=O)N[C@@H](CC(C)C)C(=O)N[C@@H](CC(=O)O)C(=O)N[C@@H](CC(=O)O)C(=O)N[C@H](C(=O)N[C@@H](CCCCN)C(=O)O)C(C)C)C(C)C)[C@@H](C)O [Peptide 37, Ac-nitroTyr-SGKTVALSLDDV-K-OH] (Ac-[Tyr(3-NO2)]SGKTVALSLDDVK-OH) | 100.0%
CC(=O)N[C@@H](Cc1ccc(O)c([N+](=O)[O-])c1)C(=O)N[C@@H](CO)C(=O)NCC(=O)N[C@@H](CCCCN)C(=O)N[C@H](C(=O)N[C@H](C(=O)N[C@@H](C)C(=O)N[C@@H](CC(C)C)C(=O)N[C@@H](CO)C(=O)N[C@@H](CC(C)C)C(=O)N[C@@H](CC(=O)O)C(=O)N[C@@H](CC(=O)O)C(=O)N[C@H](C(=O)N[C@@H](CCCCN)C(=O)O)C(C)C)C(C)C)C(C)C [Peptide 38, Ac-nitroTyr-SGKVVALSLDDV-K-OH] (Ac-[Tyr(3-NO2)]SGKVVALSLDDVK-OH) | 100.0%
